Measurements from the NIST ThermoML archive (doi:10.1016/j.jct.2017.07.024).

Legend:
[1] = wn = mass fraction of the nth substance listed; conditions: for surface tension liquid-gas: Maximal bubble pressure; for mass density: 100 kPa, Liquid, Vibrating tube method
[2] = refractive index (Na D-line) (dimensionless); wn = mass fraction of the nth substance listed; conditions: 100 kPa, Liquid, Standard Abbe refractometry

CCCCCCn1cc[n+](C)c1.C[C@@H](O)[C@H](N)C(=O)[O-] [1-hexyl-3-methylimidazolium DL-threoninate] + O
Conditions | mass density, [1] [kg/m3] | refractive index, [2] | surface tension liquid-gas, [1] [mN/m]
288.15 K, w2 = 0.006 | 1089.58 | 1.5042 | 37.4
288.15 K, w2 = 0.0091 | 1089.35 | 1.5038 | 37.6
288.15 K, w2 = 0.012 | 1089.16 | 1.5034 | 37.8
288.15 K, w2 = 0.0149 | 1088.99 | 1.5031 | 38
288.15 K, w2 = 0.0172 | 1088.81 | 1.5028 | 38.2
293.15 K, w2 = 0.006 | 1086.27 | 1.5026 | 37
293.15 K, w2 = 0.0091 | 1086.04 | 1.5023 | 37.2
293.15 K, w2 = 0.012 | 1085.85 | 1.502 | 37.4
293.15 K, w2 = 0.0149 | 1085.68 | 1.5017 | 37.6
293.15 K, w2 = 0.0172 | 1085.5 | 1.5014 | 37.8
298.15 K, w2 = 0.006 | 1082.96 | 1.5012 | 36.7
298.15 K, w2 = 0.0091 | 1082.73 | 1.5009 | 36.9
298.15 K, w2 = 0.012 | 1082.54 | 1.5006 | 37.1
298.15 K, w2 = 0.0149 | 1082.37 | 1.5003 | 37.3
298.15 K, w2 = 0.0172 | 1082.19 | 1.5 | 37.5
303.15 K, w2 = 0.006 | 1079.61 | 1.4994 | 36.4
303.15 K, w2 = 0.0091 | 1079.38 | 1.4991 | 36.7
303.15 K, w2 = 0.012 | 1079.19 | 1.4988 | 36.9
303.15 K, w2 = 0.0149 | 1079.01 | 1.4985 | 37.1
303.15 K, w2 = 0.0172 | 1078.82 | 1.4982 | 37.3
308.15 K, w2 = 0.006 | 1076.29 | 1.4981 | 36.1
308.15 K, w2 = 0.0091 | 1076.06 | 1.4978 | 36.4
308.15 K, w2 = 0.012 | 1075.86 | 1.4974 | 36.6
308.15 K, w2 = 0.0149 | 1075.69 | 1.4971 | 36.8
308.15 K, w2 = 0.0172 | 1075.49 | 1.4968 | 37
313.15 K, w2 = 0.006 | 1073 | 1.4964 | 35.8
313.15 K, w2 = 0.0091 | 1072.76 | 1.4961 | 36.1
313.15 K, w2 = 0.012 | 1072.56 | 1.4958 | 36.3
313.15 K, w2 = 0.0149 | 1072.38 | 1.4955 | 36.5
313.15 K, w2 = 0.0172 | 1072.18 | 1.4952 | 36.7
318.15 K, w2 = 0.006 | 1069.54 | 1.495 | 35.5
318.15 K, w2 = 0.0091 | 1069.29 | 1.4947 | 35.8
318.15 K, w2 = 0.012 | 1069.09 | 1.4944 | 36
318.15 K, w2 = 0.0149 | 1068.91 | 1.4941 | 36.3
318.15 K, w2 = 0.0172 | 1068.71 | 1.4938 | 36.5
323.15 K, w2 = 0.006 | 1066.37 | 1.4933 | 35.2
323.15 K, w2 = 0.0091 | 1066.12 | 1.4929 | 35.5
323.15 K, w2 = 0.012 | 1065.91 | 1.4926 | 35.7
323.15 K, w2 = 0.0149 | 1065.72 | 1.4922 | 36
323.15 K, w2 = 0.0172 | 1065.51 | 1.4919 | 36.2
328.15 K, w2 = 0.006 | 1063.07 | 1.4918 | 34.9
328.15 K, w2 = 0.0091 | 1062.82 | 1.4914 | 35.2
328.15 K, w2 = 0.012 | 1062.61 | 1.4911 | 35.4
328.15 K, w2 = 0.0149 | 1062.42 | 1.4907 | 35.7
328.15 K, w2 = 0.0172 | 1062.21 | 1.4904 | 35.9
